In the test the test system is spontaneous CNV in JR5558 mice. The experiment in a line: JR5558 spontaneous CNV model, quantitative immunohistochemistry (isolectin B4 whole-mount). The format is in vivo. The settings on record: 8 mg/kg BID v Vehicle, 12 days P14-P26. Here is the method: JR5558 mice develop CNV (on an atrophic background) spontaneously with CNV lesions first emerging approximately 12 days after birth. JR5558 mice were intraperitoneally treated with various amounts of a rat anti-mouse VEGF receptor (VEGFR)-2 blocking antibody (MAB4431; R&D systems) or a purified rat non-immune isotype match control IgG2α antibody (R&D systems) starting from P14 for a total of 10 doses in 11 days and CNV development was analyzed by fluorescein angiography (FA) 24 hours after the last dose on P25. For Mice treated with CCR3 inhibitor '994 they were dosed intraperitoneally or by eye drop with various concentrations of the drug starting at P14 for a total of 12 days and CNV development was analyzed by FA 24 hours after the last dose on P26. To study the combination effects of anti-VEGFR2 antibody and CCR3 inhibitor '994, mice were treated intraperitoneally with each material alone or in combination starting from P14 for a total of 10 doses in 11 days and CNV development was analyzed by FA 24 hours after the last dose on P25. […]
When CCR3 inhibitor '994 was dosed BID instead of QD, CCR3 inhibitor '994 also produced a significant effect in limiting both total lesion (see, FIG. 4, Table 5) area and total CNV number (see, FIG. 4, Table 6). […] Eyes were completely washed and then analysed by quantitative immunohistochemistry.

Take `NC(=O)c1ccc(CNC(=O)NC[C@H]2CN(Cc3ccc(Cl)c(Cl)c3)CCO2)cc1` [CCR3 inhibitor '994, 4-[[[[[[(2s)-4-[(3,4-dichlorophenyl)methyl]-2-morpholinyl]methyl]-amino]carbonyl]-amino]methyl]benzamide]: the “Difference in mean number of CNV lesions per eye” value is reported as −8.00 and the “Difference in mean total CNV area per eye” value is recorded as −76632.

(Values after patent US20140335083A1, “METHODS OF TREATMENT AND PREVENTION OF EYE DISEASES” (GLAXO GROUP LIMITED, priority 2011, published 2014).)
